The text below walks through data of ChEMBL document CHEMBL3399955, “Synthesis of a new series of dithiocarbamates with effective human carbonic anhydrase inhibitory activity and antiglaucoma action” (Bioorg Med Chem, 2015).

One experiment is filed under the species Homo sapiens. Description: Reduction in intraocular pressure in glaucoma patient. The format is functional, Eye.
As for `CCN[C@H]1C[C@H](C)S(=O)(=O)c2sc(S(N)(=O)=O)cc21` [DORZOLAMIDE], the Activity is 4 mmHg.

A further experiment deals with Oryctolagus cuniculus. Description: Antiglaucoma activity in New Zealand albino rabbit model of glaucoma assessed as reduction in intraocular pressure dosed as 2% eye drops immediately after injection of hypertonic saline measured 1 hr post dose. The format is functional.
Consider `CCN[C@H]1C[C@H](C)S(=O)(=O)c2sc(S(N)(=O)=O)cc21` [DORZOLAMIDE], for which the Activity came out at 4 mmHg.

The species named for the next experiment is Homo sapiens. As to the kind of experiment: Reduction in intraocular pressure in patient with open-angle glaucoma. In kind it is functional, Eye.
For the compound `CC(=O)Nc1nnc(S(N)(=O)=O)s1` [ACETAZOLAMIDE], the “inhibition (INH)” value is 25%.

A further experiment deals with Carbonic anhydrase 9 (Homo sapiens, UniProt Q16790). As to the kind of experiment: Inhibition of human recombinant carbonic anhydrase 9 expressed in Escherichia coli pre-incubated for 15 mins by stopped-flow CO2 hydration assay.
Regarding `O=C(O)C1CCCCN1C(=S)S` (centres undefined), the inhibition constant Ki is 72 nM.

On to `CN(C)CCNC(=S)S`, for which the inhibition constant Ki is 37.9 nM. Turning to `OCCCNC(=S)S`, the Ki was determined as 0.91 nM. With `OCCCCNC(=S)S`, the Ki came to 0.97 nM. The same measure, in the same setting: the result for `OCCCCCNC(=S)S` reads 2.6 nM; that for `S=C(S)NC1CN2CCC1CC2` (centres undefined), 93.5 nM.

`S=C(S)N[C@H]1CN2CCC1CC2`: the Ki stood at 71.8 nM. The same measure, in the same setting: as for `S=C(S)N[C@@H]1CN2CCC1CC2`, the figure is 82.4 nM; as for `S=C(S)N1CCCCC1`, 0.92 nM; as for `OC1CCCN(C(=S)S)C1` (centres undefined), 7.6 nM.

Consider `O=C(O)C1CCCN(C(=S)S)C1` (centres undefined), for which the inhibition constant (Ki) was 67.1 nM.

As to `O=C(O)[C@@H]1CCCN(C(=S)S)C1`, the inhibition constant Ki amounted to 41.3 nM.

Take `O=C(O)[C@H]1CCCN(C(=S)S)C1`: the Ki was determined as 86.2 nM. For the compound `O=C(O)C1CCN(C(=S)S)CC1`, the Ki came to 77.9 nM. Still for that read-out and setting: as for `CC(=O)NC1CCCN(C(=S)S)C1` (centres undefined), the figure is 9.5 nM. In the case of `CC1COCCN1C(=S)S` (centres undefined), the Ki amounted to 55.1 nM. With `O=C(O)C1COCCN1C(=S)S` (centres undefined), the Ki is 6.7 nM. On the same count and under the same terms, as for `O=C(CN1CCN(C(=S)S)CC1)NC1CCCCC1`, the figure is 79.9 nM. Still for that read-out and setting: as for `S=C(S)NCCc1ccccc1`, the figure is 25.1 nM.

With `NS(=O)(=O)c1ccc(CCNC(=S)S)cc1`, the Ki was 0.91 nM.

Another experiment deals with Oryctolagus cuniculus. As to the kind of experiment: Antiglaucoma activity in New Zealand albino rabbit model of glaucoma assessed as reduction in intraocular pressure dosed as 2% eye drops immediately after injection of hypertonic saline measured 2 hrs post dose. In kind it is functional.
`CCN[C@H]1C[C@H](C)S(=O)(=O)c2sc(S(N)(=O)=O)cc21` [DORZOLAMIDE]: the Activity came to 3 mmHg.

A word on the Ki: it is the dissociation constant of the complex between target and ligand, obtained from inhibition or displacement.
